We go through 30 compounds from patent US9981942B2, “Piperidine derivatives having multimodal activity against pain” (LABORATORIOS DEL DR. ESTEVE S.A., priority 2013, dated 2018).

In one experiment the test system is σ1 receptor and the μ-opiod receptor. The experiment can be described thus: μ and σ1 dual binding: combined class from the Ki of both radioligand assays. The note with it: combined class for Ki-μ and Ki-σ1; transfected HEK-293 membranes (σ1), transfected CHO-K1 cell membranes (μ). Details: species or system human; key to μ and σ1 dual binding: +: Both Ki-μ and Ki-σ1>=500 nM; ++: One Ki<500 nM while the other Ki is >=500 nM; +++: Both Ki-μ and Ki-σ1<500 nM; ++++: Both Ki-μ and Ki-σ1<100 nM. On the procedure:
To investigate binding properties of σ1 receptor ligands to human σ1 receptor, transfected HEK-293 membranes and [^3H](+)-pentazocine (Perkin Elmer, NET-1056), as the radioligand, were used. The assay was carried out with 7 μg of membrane suspension, 5 nM of [^3H](+)-pentazocine in either absence or presence of either buffer or 10 μM Haloperidol for total and non-specific binding, respectively. Binding buffer contained Tris-HCl 50 mM at pH 8. Plates were incubated at 37° C. for 120 minutes. After the incubation period, the reaction mix was then transferred to MultiScreen HTS, FC plates (Millipore), filtered and plates were washed 3 times with ice-cold 10 mM Tris-HCL (pH7.4). Filters were dried and counted at approximately 40% efficiency in a MicroBeta scintillation counter (Perkin-Elmer) using EcoScint liquid scintillation cocktail
To investigate binding properties of mu-opioid receptor ligands to human μ-opioid receptor, transfected CHO-K1 cell membranes and [^3H]-DAMGO (Perkin Elmer, ES-542-C), as the radioligand, were used. The assay was carried out with 20 μg of membrane suspension, 1 nM of [^3H]-DAMGO in either absence or presence of either buffer or 10 μM Naloxone for total and non-specific binding, respectively. Binding buffer contained Tris-HCl 50 mM, MgCl2 5 mM at pH 7.4. Plates were incubated at 27° C. for 60 minutes. After the incubation period, the reaction mix was then transferred to MultiScreen HTS, FC plates (Millipore), filtered and plates were washed 3 times with ice-cold 10 mM Tris-HCL (pH 7.4). Filters were dried and counted at approximately 40% efficiency in a MicroBeta scintillation counter (Perkin-Elmer) using EcoScint liquid scintillation cocktail.
The following scale as been adopted for representing the binding to the σ1 receptor and the μ-opiod receptor expressed as Ki: • + Both Ki-μ and Ki-σ1>=500 nM • ++ One Ki<500 nM while the other Ki is >=500 nM • +++ Both Ki-μ and Ki-σ1<500 nM • ++++ Both Ki-μ and Ki-σ1<100 nM
With `Oc1cccc(C2CCN(Cc3cn([C@@H]4CCC[C@H]4O)nn3)CC2)c1` (racemic) [Example 5, (±)-(trans)-3-(1-((1-(2-hydroxycyclopentyl)-1H-1,2,3-triazol-4-yl)methyl)piperidin-4-yl)phenol], the “μ and σ1 dual binding” value is on record as “++”.
Still for that read-out and setting: next, `CS(=O)(=O)Nc1cccc(C2CCN(Cc3cn([C@@H]4c5ccccc5C[C@H]4O)nn3)CC2)c1` (racemic) [Example 70, (±)-(trans)-N-(3-(1-((1-(2-hydroxy-2,3-dihydro-1H-inden-1-yl)-1H-1,2,3-triazol-4-yl)methyl)piperidin-4-yl)phenyl)methanesulfonamide]: “++”; `CC(C)S(=O)(=O)Nc1cccc([C@H]2CCN(Cc3cn(-c4ccccc4)nn3)C[C@H]2O)c1` (racemic) [Example 127, N-(3-((3S,4R)-3-hydroxy-1-((1-phenyl-1H-1,2,3-triazol-4-yl)methyl)piperidin-4-yl)phenyl)propane-2-sulfonamide]: “++”.
As for `c1ccc(-n2cc(CN3CCC(c4cccc5[nH]cnc45)CC3)nn2)cc1` [Example 11, 4-(1-((1-phenyl-1H-1,2,3-triazol-4-yl)methyl)piperidin-4-yl)-1H-benzo[d]imidazole], the “μ and σ1 dual binding” value is on record as “++”.
Same read-out and setting: next, `Oc1ccc(C(F)(F)F)c(C2CCN(Cc3cn(-c4ccccc4)nn3)CC2)c1` [Example 12, 3-(1-((1-phenyl-1H-1,2,3-triazol-4-yl)methyl)piperidin-4-yl)-4-(trifluoromethyl)phenol]: “++”; `O=c1[nH]c2cccc(C3CCN(Cc4cn(-c5ccccc5)nn4)CC3)c2[nH]1` [Example 13, 4-(1-((1-phenyl-1H-1,2,3-triazol-4-yl)methyl)piperidin-4-yl)-1H-benzo[d]imidazol-2(3H)-one]: “++”; `CNS(=O)(=O)c1cccc(C2CCN(Cc3cn(-c4ccccc4)nn3)CC2)c1` [Example 17, N-methyl-3-(1-((1-phenyl-1H-1,2,3-triazol-4-yl)methyl)piperidin-4-yl)benzenesulfonamide]: “++”.
Still for that read-out and setting: next, `CS(=O)(=O)Nc1ccc(C(F)(F)F)c(C2CCN(Cc3cn(-c4ccccc4)nn3)CC2)c1` [Example 20, N-(3-(1-((1-phenyl-1H-1,2,3-triazol-4-yl)methyl)piperidin-4-yl)-4-(trifluoromethyl)phenyl)methanesulfonamide]: “++”; `c1ccc(-n2cc(CN3CCC(c4ccc5cn[nH]c5c4)CC3)nn2)cc1` [Example 26, 6-(1-((1-phenyl-1H-1,2,3-triazol-4-yl)methyl)piperidin-4-yl)-1H-indazole]: “++”.

The same experiment, now with this note: transfected HEK-293 membranes (σ1), transfected CHO-K1 cell membranes (μ).
For the compound `CC(C)S(=O)(=O)Nc1cccc([C@@H]2CCN(Cc3cn(-c4ccccc4)nn3)C[C@@H]2O)c1` (racemic) [Example 115, N-(3-((3R,4S)-3-hydroxy-1-((1-phenyl-1H-1,2,3-triazol-4-yl)methyl)piperidin-4-yl)phenyl)propane-2-sulfonamide], the Ki range for both μ and σ1 (dual-binding class) was less than 500 nM.
Still for that read-out and setting: in the case of `OC[C@@H](c1ccccc1)n1cc(CN2CCC(c3cccc(O)c3)CC2)nn1` (stereo in doubt) [Example 149, (R)-3-(1-((1-(2-hydroxy-1-phenylethyl)-1H-1,2,3-triazol-4-yl)methyl)piperidin-4-yl)phenol] it was less than 500 nM; in that of `OC[C@H](c1ccccc1)n1cc(CN2CCC(c3cccc(O)c3)CC2)nn1` (stereo in doubt) [Example 150, (S)-3-(1-((1-(2-hydroxy-1-phenylethyl)-1H-1,2,3-triazol-4-yl)methyl)piperidin-4-yl)phenol], less than 500 nM; in that of `CC(C)S(=O)(=O)Nc1cccc(C2CCN(Cc3cn(-c4ccccc4)nn3)CC2)c1` [Example 1, N-(3-(1-((1-phenyl-1H-1,2,3-triazol-4-yl)methyl)piperidin-4-yl)phenyl)propane-2-sulfonamide], less than 100 nM.
On the same count and under the same terms, in the case of `Oc1cccc(C2CCN(Cc3cn(-c4ccccc4)nn3)CC2)c1` [Example 2, 3-(1-((1-phenyl-1H-1,2,3-triazol-4-yl)methyl)piperidin-4-yl)phenol] it was less than 100 nM; in that of `CCCn1cc(CN2CCC(c3cccc(O)c3)CC2)nn1` [Example 3, 3-(1-((1-propyl-1H-1,2,3-triazol-4-yl)methyl)piperidin-4-yl)phenol], less than 500 nM; in that of `Oc1cccc(C2CCN(Cc3cn(Cc4ccccc4F)nn3)CC2)c1` [Example 4, 3-(1-((1-(2-fluorobenzyl)-1H-1,2,3-triazol-4-yl)methyl)piperidin-4-yl)phenol], less than 100 nM.
Same read-out and setting: in the case of `NC(=O)c1cccc(C2CCN(Cc3cn(-c4ccccc4)nn3)CC2)c1` [Example 6, 3-(1-((1-phenyl-1H-1,2,3-triazol-4-yl)methyl)piperidin-4-yl)benzamide] it was less than 500 nM; in that of `CCC(=O)Nc1cccc(C2CCN(Cc3cn(-c4ccccc4)nn3)CC2)c1` [Example 7, N-(3-(1-((1-phenyl-1H-1,2,3-triazol-4-yl)methyl)piperidin-4-yl)phenyl)propionamide], less than 500 nM; in that of `Oc1cccc(C2CCN(Cc3cn(Cc4ccccc4)nn3)CC2)c1` [Example 8, 3-(1-((1-benzyl-1H-1,2,3-triazol-4-yl)methyl)piperidin-4-yl)phenol], less than 100 nM.
With `CC(=O)Nc1cccc(C2CCN(Cc3cn(-c4ccccc4)nn3)CC2)c1` [Example 9, N-(3-(1-((1-phenyl-1H-1,2,3-triazol-4-yl)methyl)piperidin-4-yl)phenyl)acetamide], the Ki range for both μ and σ1 (dual-binding class) is less than 500 nM.
Same read-out and setting: next, `Oc1cccc(C2CCN(Cc3cn(-c4cccnc4)nn3)CC2)c1` [Example 10, 3-(1-((1-(pyridin-3-yl)-1H-1,2,3-triazol-4-yl)methyl)piperidin-4-yl)phenol]: less than 500 nM.
Same read-out and setting: in the case of `Oc1cccc(C2CCN(Cc3cn(-c4ccncc4)nn3)CC2)c1` [Example 14, 3-(1-((1-(pyridin-4-yl)-1H-1,2,3-triazol-4-yl)methyl)piperidin-4-yl)phenol] it was less than 500 nM; in that of `Oc1cccc(C2CCN(Cc3cn([C@@H]4c5ccccc5C[C@H]4O)nn3)CC2)c1` [Example 15, (1R,2R)-1-(4-((4-(3-hydroxyphenyl)piperidin-1-yl)methyl)-1H-1,2,3-triazol-1-yl)-2,3-dihydro-1H-inden-2-ol], less than 500 nM; in that of `CS(=O)(=O)Nc1cccc(C2CCN(Cc3cn(-c4ccc(F)cc4)nn3)CC2)c1` [Example 16, N-(3-(1-((1-(4-fluorophenyl)-1H-1,2,3-triazol-4-yl)methyl)piperidin-4-yl)phenyl)methanesulfonamide], less than 500 nM.
Same read-out and setting: in the case of `CS(=O)(=O)Nc1ccc(F)c(C2CCN(Cc3cn(-c4ccccc4)nn3)CC2)c1` [Example 18, N-(4-fluoro-3-(1-((1-phenyl-1H-1,2,3-triazol-4-yl)methyl)piperidin-4-yl)phenyl)methanesulfonamide] it was less than 100 nM; in that of `Oc1cccc(C2CCN(Cc3cn(C4CCCCC4)nn3)CC2)c1` [Example 19, 3-(1-((1-cyclohexyl-1H-1,2,3-triazol-4-yl)methyl)piperidin-4-yl)phenol], less than 100 nM.
`c1ccc(-n2cc(CN3CCC(c4ccc5nc[nH]c5c4)CC3)nn2)cc1` [Example 21, 6-(1-((1-phenyl-1H-1,2,3-triazol-4-yl)methyl)piperidin-4-yl)-1H-benzo[d]imidazole]: the Ki range for both μ and σ1 (dual-binding class) is less than 500 nM.
Same read-out and setting: next, `CS(=O)(=O)Nc1cccc(C2CCN(Cc3cn(C4CCCCC4)nn3)CC2)c1` [Example 22, N-(3-(1-((1-cyclohexyl-1H-1,2,3-triazol-4-yl)methyl)piperidin-4-yl)phenyl)methanesulfonamide]: less than 500 nM; `CC(C)n1cc(CN2CCC(c3cccc(O)c3)CC2)nn1` [Example 23, 3-(1-((1-isopropyl-1H-1,2,3-triazol-4-yl)methyl)piperidin-4-yl)phenol]: less than 500 nM.
Still for that read-out and setting: next, `CC(C)Cn1cc(CN2CCC(c3cccc(O)c3)CC2)nn1` [Example 25, 3-(1-((1-isobutyl-1H-1,2,3-triazol-4-yl)methyl)piperidin-4-yl)phenol]: less than 100 nM.
